Measurements reported in the supplement of paper PMC7840683.
± gives the standard deviation of the averaged measurements.

Tested on: HepaRG
Assay: LDH release cytotoxicity, % of total lysis control; higher = more cytotoxic
Settings: 48 h
Outline: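 On collagen I-coated 96-well plates, single-lot HepaRG cells were exposed for 48 h, in duplicate, to eight-point half-log series of test chemicals beginning at 100 µM. The exposure medium was serum-free induction medium with 0.5% DMSO, and total lysis wells got 0.1% Triton X. Resorufin fluorescence from the CytoTox-ONE reaction, read on a Tecan Safire, reported LDH in 50 µL of spent medium. Percent cytotoxicity came from normalization to on-plate vehicle and total lysis controls, averaged over the duplicates.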

SMILES	LDH release cytotoxicity (0.03162 µM)	LDH release cytotoxicity (0.1 µM)	LDH release cytotoxicity (0.3162278 µM)	LDH release cytotoxicity (1 µM)	LDH release cytotoxicity (3.16228 µM)	LDH release cytotoxicity (10 µM)	LDH release cytotoxicity (31.6228 µM)	LDH release cytotoxicity (100 µM)	other results
O=P(O)(O)CCCl [Ethephon]	-2.07 ± 0.56%	-1.57 ± 0.61%	-2.29 ± 0.67%	-1.94 ± 0.34%	-2.12 ± 0.63%	-1.39 ± 0.53%	-0.276 ± 0.008%	0.34 ± 0.033%	
CCNc1ccccc1 [N-Ethylaniline]	-1.05 ± 0.66%	-1.82 ± 1.1%	-0.782 ± 1.1%	-2.09 ± 1.1%	-0.812 ± 0.9%	-0.444 ± 0.085%	-0.781 ± 0.36%	0.942 ± 0.42%	
COc1ccc(OC(F)(F)F)cc1CNC1CCCNC1c1ccccc1 (configuration not stated)	-0.49 ± 0.062%	-0.83 ± 0.43%	-1.38 ± 0.18%	-1.02 ± 1.2%	-1.52 ± 1.2%	-0.56 ± 0.84%	5.16 ± 0.72%	88 ± 10%	
CCCCOC(=O)CCCCCCCCC(=O)OCCCC [Dibutyl decanedioate]	-1.01 ± 0.4%	-1.61 ± 0.65%	-1.81 ± 0.16%	-2.3 ± 0.41%	-2.91 ± 0.79%	-1.92 ± 0.027%	-1.43 ± 1%	0.112 ± 0.92%	
C#CC1(O)CCC2C3CCC4=CC(=O)CCC4C3CCC21C (configuration not stated) [Norethindrone]	-0.43 ± 0.47%	0.00115 ± 0.14%	-0.373 ± 0.45%	-0.047 ± 0.53%	0.727 ± 1%	0.906 ± 1.7%	2.7 ± 1.3%	2.69 ± 0.34%	
Nc1ccc2ccccc2c1 [2-Naphthylamine]	-1.06 ± 0.22%	-1.31 ± 0.37%	-0.801 ± 0.7%	-1.43 ± 0.78%	-1.16 ± 0.89%	-0.463 ± 0.054%	0.128 ± 0.57%	0.14 ± 0.74%	
O=C(O)c1ccc2c(c1)nc(C(=O)NC1CCN(C3CC3)CC1)n2Cc1cc(-c2ccc(Cl)s2)on1 [AVE3247]									LDH release cytotoxicity (0.0075895 µM): -0.875 ± 0.16%; LDH release cytotoxicity (0.024 µM): -2.04 ± 0.26%; LDH release cytotoxicity (0.0758947 µM): -2.37 ± 0.35%; LDH release cytotoxicity (0.24 µM): -2.63 ± 0.092%; LDH release cytotoxicity (0.758947 µM): -2.23 ± 0.33%; LDH release cytotoxicity (2.4 µM): -1.94 ± 0.17%; LDH release cytotoxicity (7.58947 µM): -1.68 ± 0.43%; LDH release cytotoxicity (24 µM): -0.941 ± 0.19%
CCCCC(CC)COC(=O)c1ccc(C(=O)OCC(CC)CCCC)cc1 (configuration not stated) [Bis(2-ethylhexyl) terephthalate]	-2 ± 1.1%	-1.13 ± 0.62%	-1.76 ± 0.63%	-2.5 ± 0.76%	-2.35 ± 0.77%	-2.12 ± 0.71%	-2.26 ± 0.82%	-1.14 ± 0.6%	
COc1ccc(S(=O)(=O)N2C(=O)C(c3ccccc3OC)(N3CC(O)CC3C(=O)N(C)C)c3cc(Cl)ccc32)c(OC)c1 (configuration not stated) [Nelivaptan]	-0.817 ± 0.14%	0.214 ± 1.6%	0.146 ± 0.67%	-0.447 ± 0.43%	-0.164 ± 0.61%	0.998 ± 1.2%	-0.141 ± 0.64%	-0.056 ± 0.061%	
NC(Cc1cc(I)c(Oc2ccc(O)c(I)c2)c(I)c1)C(=O)O (configuration not stated) [3,5,3'-Triiodothyronine]		-3.18 ± 1.4%		-4.06 ± 0.7%	-3.84 ± 0.24%	-3.581 ± 0.016%	-2.69 ± 1.4%	0.489 ± 0.55%	LDH release cytotoxicity (0.031623 µM): -1.22 ± 1.4%; LDH release cytotoxicity (0.316228 µM): -4.73 ± 0.3%
COC(=O)CCCCC(=O)OC [Dimethyl adipate]	0.892 ± 0.4%	-1.11 ± 0.066%	-1.36 ± 0.49%	-1.52 ± 0.75%	-1.398 ± 0.013%	-1.08 ± 0.68%	-0.702 ± 0.6%	0.485 ± 0.56%	
CCCCCCc1ccc(O)cc1O [4-Hexylresorcinol]	-1.87 ± 0.26%	-0.709 ± 0.041%	-0.736 ± 1.1%	-1.64 ± 0.45%	-1.6 ± 1%	-1.36 ± 0.29%	0.152 ± 0.4%	1.18 ± 0.84%	
CN(C)C(=O)C1(N2CCCCC2)CCN(CCC2(c3ccc(Cl)c(Cl)c3)CN(C(=O)c3ccccc3)CCO2)CC1 (configuration not stated)									LDH release cytotoxicity (0.02988 µM): -0.742 ± 0.13%; LDH release cytotoxicity (0.0945 µM): -0.252 ± 0.56%; LDH release cytotoxicity (0.298835 µM): -0.7 ± 0.3%; LDH release cytotoxicity (0.945 µM): -0.736 ± 0.65%; LDH release cytotoxicity (2.98835 µM): -0.21 ± 0.34%; LDH release cytotoxicity (9.45 µM): 0.674 ± 0.023%; LDH release cytotoxicity (29.8835 µM): 69.1 ± 16%; LDH release cytotoxicity (94.5 µM): 85.4 ± 2.6%
CNC(=O)N(C)c1nnc(C(C)(C)C)s1 [Tebuthiuron]	-1.29 ± 0.35%	-1.38 ± 0.11%	-1.87 ± 0.62%	-1.53 ± 0.63%	-0.935 ± 0.044%	-1.24 ± 0.31%	-1.15 ± 0.46%	0.223 ± 0.25%	
O=C(Nc1ccccc1)Nc1cnns1 [Thidiazuron]	-1.24 ± 0.048%	-0.715 ± 0.86%	-0.562 ± 0.16%	-0.873 ± 0.82%	-1.15 ± 0.018%	-0.652 ± 1.3%	-0.0499 ± 1.6%	17.6 ± 3.5%	
O=S(=O)(O)C(F)(F)C(F)(F)C(F)(F)C(F)(F)F [Potassium perfluorobutanesulfonate]									LDH release cytotoxicity (0.0332039 µM): -0.897 ± 0.78%; LDH release cytotoxicity (0.105 µM): -1.25 ± 1.1%; LDH release cytotoxicity (0.332039 µM): -2.33 ± 0.91%; LDH release cytotoxicity (1.05 µM): -2.02 ± 0.33%; LDH release cytotoxicity (3.32039 µM): -1.34 ± 0.56%; LDH release cytotoxicity (10.5 µM): -1.05 ± 0.085%; LDH release cytotoxicity (33.2039 µM): -1.53 ± 0.46%; LDH release cytotoxicity (105 µM): 0.458 ± 0.54%
CNCc1cc(F)ccc1Oc1ccc(Cl)c(Cl)c1	-11 ± 1.1%	-10.04 ± 0.031%	-10.6 ± 1.2%	-10.4 ± 0.19%	-11.2 ± 0.63%	-10 ± 1.1%	-8.03 ± 1.4%	75.6 ± 5.6%	
C=CCc1ccc(OC)c(OC)c1 [Methyleugenol]	-1.16 ± 1.3%	-0.0217 ± 1.6%	-0.545 ± 1.1%	-0.949 ± 0.59%	-0.679 ± 0.11%	-0.724 ± 0.15%	-0.435 ± 0.59%	0.911 ± 0.18%	
CCCCCCCCCCCCCCCCCC(=O)O [Octadecanoic acid]	-0.507 ± 0.67%	-1.75 ± 1.4%	-1.54 ± 0.31%	-1.46 ± 0.77%	-1.45 ± 0.023%	-0.538 ± 0.059%	-0.0805 ± 0.49%	0.581 ± 0.81%	
